PubChem BioAssay (NCI)
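Values below derive from 48-hour exposures of cells grown in 96-well plates, with endpoints linearly interpolated between the two concentrations bracketing the appropriate inhibition level. GI50: concentration for 50% inhibition of growth. TGI is the concentration that stops growth completely.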

What was measured:
Experiment in all cases: NCI-60 cell line screen, 48 h
SNB-78 CNS = test system: SNB-78 CNS
HOP-18 NSCLC = test system: HOP-18 NSCLC
M19-MEL melanoma = test system: M19-MEL melanoma
DLD-1 colon = test system: DLD-1 colon
BT-549 breast = test system: BT-549 breast
RXF-631 renal = test system: RXF-631 renal
XF 498 CNS = test system: XF 498 CNS
KM20L2 colon = test system: KM20L2 colon
MDA-N = test system: MDA-N

| SMILES | TGI (SNB-78 CNS) [µM] | TGI (HOP-18 NSCLC) [µM] | TGI (M19-MEL melanoma) [µM] | TGI (DLD-1 colon) [µM] | GI50 (BT-549 breast) [µM] | TGI (BT-549 breast) [µM] | TGI (RXF-631 renal) [µM] | TGI (XF 498 CNS) [µM] | TGI (KM20L2 colon) [µM] | other results |
| --- | --- | --- | --- | --- | --- | --- | --- | --- | --- | --- |
| CCOC(=O)C(=O)Nc1ccc(C)cc1C | > 100 | > 100 | > 100 | > 100 |  |  |  |  |  |  |
| N#Cc1c(-c2ccc(Cl)cc2)n(O)c2ccccc12 |  |  |  |  | 1.16 | 7.97 |  |  |  |  |
| CC(=O)C1CC=C(C)CC1 (centres undefined) | > 100 | > 100 | > 100 | > 100 |  |  | > 100 | > 100 | > 100 |  |
| COc1ccc(NC(=O)n2nc(N)c3ccccc32)cc1OC |  |  |  |  | 25.9 | > 100 |  |  |  |  |
| COC(=O)C1=C(C(=O)OC)C2(OC(C)=O)c3ccccc3-c3ccccc3C12 (centres undefined) | 10.8 | 9.5 | 8.79 | 3.28 |  |  |  | 26.1 | 12.8 |  |
| NC(=NCCCOc1ccc(Cl)cc1)Nc1ccc(Cl)cc1 |  |  |  |  | 3.35 | 10 |  |  |  |  |
| Brc1ccc(-c2nnc(-c3nn(-c4ccccc4)c4nc5ccccc5nc34)o2)cc1 | > 100 | > 100 |  | > 100 |  |  | > 100 |  | > 100 |  |
| O=C(OCc1ccccc1)N1CCN(/[N+]([O-])=N/Oc2ccc([N+](=O)[O-])cc2[N+](=O)[O-])CC1 |  |  |  |  | 8.15 | 23.4 |  |  |  |  |
| CCn1cc(/C=C/C(C)c2cn(CC)c(=O)[nH]c2=O)c(=O)[nH]c1=O (centres undefined) |  | > 100 | > 100 | > 100 |  |  | > 100 |  | > 100 |  |
| NC(N)=NS(=O)(=O)c1ccc(NCc2c3ccccc3nc3ccccc23)cc1 | > 66.9 | > 86.8 | > 100 | > 77 |  | 34.3 | > 70.1 |  | > 100 | TGI (MDA-N): > 100 µM |
| CC(=O)O/N=C/c1ncccc1OC(C)=O |  | > 100 | > 100 | > 100 |  |  | > 100 | > 100 | > 100 |  |
| COC1=CC(O)(CC(N)=O)c2ccccc2C1=O (centres undefined) | > 100 | > 100 | > 100 | > 100 |  |  | > 100 | > 100 | > 100 |  |
| Cc1cc(N(CCC#N)S(C)(=O)=O)ccc1C=O | > 100 | > 100 |  | > 100 |  |  |  |  | > 100 |  |
| CCC[CH2][Sn]([CH2]CCC)([O]C(=O)c1cc(F)cc(F)c1)[O]C(=O)c1cc(F)cc(F)c1 | 1.66 | 3.33 | 1.74 | 2 |  |  |  | 3.28 | 3.44 | GI50 (SNB-78 CNS): 0.404 µM; GI50 (HOP-18 NSCLC): 1.91 µM; GI50 (XF 498 CNS): 1.87 µM; GI50 (KM20L2 colon): 1.61 µM; GI50 (M19-MEL melanoma): 0.514 µM; GI50 (DLD-1 colon): 0.727 µM |
| Cc1ccc(NC(=O)c2cccc([N+](=O)[O-])c2O)c([N+](=O)[O-])c1 | > 100 | 91.1 | 27.6 | 39.9 |  |  | 26.9 | 36.2 | 70.4 |  |
| NC(CSC(c1ccccc1)(c1ccccc1)c1ccc(Cl)cc1)C(=O)O (centres undefined) |  |  |  |  | 0.324 | 15.8 |  |  |  |  |
| CC1/C=C/C=C/C=C/C=C/C=C/C=C/C=C/C(O[C@@H]2O[C@H](C)[C@H](O)[C@@H](O)[C@@H]2N)CC(O)C(C(=O)O)C(O)CC(=O)CC(O)CC(O)CC(O)CC(=O)CCCC(=O)CC(=O)OC1C(C)CC(C)C(O)CC(=O)c1ccc(N)cc1 (some centres undefined) |  |  |  |  | 0.213 | 0.444 |  |  |  |  |

| SMILES | TGI (SNB-78 CNS) [µM] | TGI (HOP-18 NSCLC) [µM] | TGI (M19-MEL melanoma) [µM] | TGI (DLD-1 colon) [µM] | GI50 (BT-549 breast) [µM] | TGI (BT-549 breast) [µM] | TGI (RXF-631 renal) [µM] | TGI (XF 498 CNS) [µM] | TGI (KM20L2 colon) [µM] | other results |
| --- | --- | --- | --- | --- | --- | --- | --- | --- | --- | --- |
| CCN(CC)CCCNc1cccc2c(SCc3ccccc3)ccnc12 |  |  |  |  | 1.62 | 3.35 |  |  |  |  |
| CCCN(CCCC(NC(C)=O)C(=O)NCc1ccccc1)C(=O)NC (centres undefined) | > 100 |  | > 100 | > 100 |  |  | > 100 |  | > 100 |  |
| OCCCN=NNc1ccc(-c2nc3ccccc3[nH]2)cc1 |  |  |  |  | 34.4 | 96.8 |  |  |  |  |
| COc1ccc(C2=NNC(=O)OC2c2ccccc2)cc1 (centres undefined) | > 100 | > 100 | > 100 |  |  |  | > 100 | > 100 | > 100 |  |
| NC(=O)C1=NNc2ccccc2C(=O)N1c1ccccc1 |  |  |  |  |  | > 100 |  |  |  | TGI (MDA-N): > 100 µM |
| COc1ccc(/C(=N/NC(=O)NN)C(c2ccc(OC)cc2)C2(O)CNc3c(Cl)cc(Cl)cc32)cc1 (centres undefined) | > 100 | > 100 | > 100 | > 100 |  |  | > 100 |  | > 100 |  |
| CCOC(=O)C(=O)Nc1c(F)cc(F)cc1Br | > 100 |  | > 100 | > 100 |  |  |  | > 100 | > 100 |  |
| CCOC(=O)N1CCc2cc(OC)c(OC)c3c2C1CC3=O (centres undefined) | > 100 | > 100 | > 100 | > 100 |  |  |  |  | > 100 |  |
| Cc1cc2cc3cc(C)c(N(C)C)cc3nc2cc1N(C)C |  |  |  |  | 4.26 | 15.6 |  |  |  |  |
| CC(C)C1OC(=O)C=C1Sc1ccccc1 (centres undefined) |  |  |  |  |  | > 100 |  |  |  | TGI (MDA-N): > 100 µM |
| CCN(CC)c1cc(/C=C/c2ccc(OC)c(OC)c2)nc2cc(F)c(F)cc12 |  |  |  |  | 2.03 | 5.28 |  |  |  |  |
| C=C(C)[C@@H]1CC[C@]2(C)[C@H](C(=O)C=C3[C@@H]4C[C@](C)(C(=O)N5CCN(C)CC5)CC[C@]4(C)CC[C@]32C)[C@@]1(C)CCC#N |  |  |  |  | 6.67 | 13.4 |  |  |  |  |
| O=C(CC1(O)C(=O)Nc2ccccc21)c1ccccc1Cl (centres undefined) | > 100 |  | > 100 | > 100 |  |  |  | > 100 | > 100 |  |
| COc1ccc(C(O)/C(=N\NC(N)=S)c2nc3ccc([N+](=O)[O-])cc3[nH]c2=O)cc1OC (centres undefined) |  | > 100 | > 100 | > 100 |  |  | > 100 | > 100 | > 100 |  |
| CC(C)CCOc1ccc(-c2n[nH]c(C(F)(F)F)c2-c2cncc(C#N)c2)c(O)c1 |  |  |  |  | 2.57 | 9.51 |  |  |  |  |
| Cc1nc2sccn2c(=O)c1CCN1CCC(=C(c2ccc(F)cc2)c2ccc(F)cc2)CC1 |  |  |  |  | 9.38 | 24.5 |  |  |  |  |
